From patent US20130172324A1, “METHOD FOR TREATING CARDIOVASCULAR DISEASES USING RHO KINASE INHIBITOR COMPOUNDS” (priority 2008, published 2013)
Like-named read-outs stand apart in the source and are kept apart here.

System: rat trachea rings
Assay: Tracheal relaxation assay (carbachol precontracted rings);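 also: isometric tension of rat tracheal rings in Krebs buffer with 1 µM indomethacin, compounds added cumulatively at 30 min intervals, basal tension subtracted, fit to Hill equation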
Conditions: for Percentage of carbachol-induced contraction at 1 μM compound, Avg % / Percentage of carbachol-induced contraction at 10 μM compound, Avg %: 1 μM carbachol; for IC50: read-out: IC50 Avg; for Trachael Ring Contraction, %: average percentage of carbachol-induced rat tracheal ring contraction at 1 μM of test compound
[1] = relaxation of 1 μM carbachol precontracted rat tracheal rings

Procedure: The effects of compounds to induce relaxation of pre-contracted rat trachealis were determined. […] Trachea were excised, cleaned of connective tissue and cut into cylindrical segments of 2-3 mm length. Two stainless steel wires were guided through the lumen of the tracheal ring. One wire was fixed in the tissue bath and the other was connected to a force transducer via surgical silk. […] Indomethacin (1 μM), a cyclooxygenase inhibitor, was added to the Krebs buffer and was present throughout the experiments. Contractile tensions were measured using an isometric force transducer (Grass Instruments) and signals were analyzed using specialized software (Chart v5.5, ADInstruments). The preparations were allowed to equilibrate at a resting tension of 0.3 to 0.5 gm prior to two challenges with 60 mM KCl to assess tissue viability. After washing, tissues were treated with 1 μM carbachol for 10 to 15 minutes to induce a contractile response. Test Compounds were added cumulatively to the bath every 30 minutes and reductions in tension were recorded. Basal tension was subtracted from all values and data were reported as a percentage of the maximal carbachol-induced contraction. Data were fit to the Hill equation using GraphPad Prism v5 software.

SMILES	Percentage of carbachol-induced contraction at 1 μM compound, Avg %	Percentage of carbachol-induced contraction at 10 μM compound, Avg %	Trachael Ring Contraction, %	also measured
Fc1ccc(CN2CCC[C@H](Nc3ccc4[nH]ncc4c3)C2)cc1F [Compound 1.072, (S)-N-(1-(3,4-difluorobenzyl)piperidin-3-yl)-1H-indazol-5-amine]	33.1%	–	–	–
CSc1ccc(CN2CCC[C@@H](Nc3ccc4[nH]ncc4c3)C2)cc1 [Compound 1.074, (R)-N-(1-(4-(methylthio)benzyl)piperidin-3-yl)-1H-indazol-5-amine]	39.6%	−15.1%	40%	IC50 (Rattus norvegicus): 729 nM
CSc1ccc(CN2CCC[C@H](Nc3ccc4[nH]ncc4c3)C2)cc1 [Compound 1.075, (S)-N-(1-(4-(methylthio)benzyl)piperidin-3-yl)-1H-indazol-5-amine]	39.1%	–	39%	–
Cc1ccc(CN2CCC[C@H](Nc3ccc4[nH]ncc4c3)C2)cc1 [Compound 1.078, (S)-N-(1-(4-methylbenzyl)piperidin-3-yl)-1H-indazol-5-amine]	39.6%	–	–	–
NC(=O)Cn1ccc2ccc(CN3CCC[C@H](Nc4ccc5[nH]ncc5c4)C3)cc21 [Compound 1.107, (S)-2-(6-((3-(1H-indazol-5-ylamino)piperidin-1-yl)methyl)-1H-indol-1-yl)acetamide]	–	9.9%	–	IC50 (Rattus norvegicus): 1240 nM
CCS(=O)(=O)Nc1cccc(CN2CCC[C@@H](Nc3ccc4[nH]ncc4c3)C2)c1 [Compound 1.123, (R)-N-(3-((3-(1H-indazol-5-ylamino)piperidin-1-yl)methyl)phenyl)ethanesulfonamide]	46.7%	4.6%	47%	IC50 (Rattus norvegicus): 45 nM
CCS(=O)(=O)Nc1cccc(CN2CCC[C@H](Nc3ccc4[nH]ncc4c3)C2)c1 [Compound 1.124, (S)-N-(3-((3-(1H-indazol-5-ylamino)piperidin-1-yl)methyl)phenyl)ethanesulfonamide]	37.8%	19.7%	38%	IC50 (Rattus norvegicus): 21 nM
Clc1ccc(CN2CCC[C@@H](Nc3ccc4[nH]ncc4c3)C2)cc1 [Compound 1.132, (R)-N-(1-(4-chlorobenzyl)piperidin-3-yl)-1H-indazol-5-amine]	42.4%	–	42%	–
Clc1ccc(CN2CCC[C@H](Nc3ccc4[nH]ncc4c3)C2)cc1 [Compound 1.141, (S)-N-(1-(4-chlorobenzyl)piperidin-3-yl)-1H-indazol-5-amine]	35.3%	–	35%	–
c1cc2ccc(CN3CCC[C@H](Nc4ccc5[nH]ncc5c4)C3)cc2[nH]1 [Compound 1.148, (S)-N-(1-((1H-indol-6-yl)methyl)piperidin-3-yl)-1H-indazol-5-amine]	51.2%	–	51%	–
c1cc2cc(CN3CCC[C@H](Nc4ccc5[nH]ncc5c4)C3)ccc2[nH]1 [Compound 1.149, (S)-N-(1-((1H-indol-5-yl)methyl)piperidin-3-yl)-1H-indazol-5-amine]	34.4%	–	34%	–
c1cc2cc(CN3CCC[C@H](Nc4ccc5[nH]ncc5c4)C3)ccc2o1 [Compound 1.150, (S)-N-(1-(benzofuran-5-ylmethyl)piperidin-3-yl)-1H-indazol-5-amine]	39.7%	–	40%	–
Cc1ccc(CN2CCC[C@H](Nc3ccc4[nH]ncc4c3)C2)cc1O [Compound 1.151, (S)-5-((3-(1H-indazol-5-ylamino)piperidin-1-yl)methyl)-2-methylphenol]	33.1%	–	–	–
Cc1ccc(CN2CCC[C@H](Nc3ccc4[nH]ncc4c3)C2)cc1OCCO [Compound 1.152, (S)-2-(5-((3-(1H-indazol-5-ylamino)piperidin-1-yl)methyl)-2-methylphenoxy)ethanol]	34.4%	–	34%	–
C#Cc1cccc(CN2CCC[C@H](Nc3ccc4[nH]ncc4c3)C2)c1 [Compound 1.153, (S)-N-(1-(3-ethynylbenzyl)piperidin-3-yl)-1H-indazol-5-amine]	40.9%	–	41%	–
Oc1cccc(CN2CCC[C@H](Nc3ccc4[nH]ncc4c3)C2)c1 [Compound 1.163, (S)-3-((3-(1H-indazol-5-ylamino)piperidin-1-yl)methyl)phenol]	35.4%	–	35%	–
Cc1ccc(CN2CCC[C@@H](Nc3ccc4[nH]ncc4c3)C2)cc1O [Compound 1.173, (R)-5-((3-(1H-indazol-5-ylamino)piperidin-1-yl)methyl)-2-methylphenol]	32.8%	–	33%	–
NCc1cccc(CN2CCC[C@H](Nc3ccc4[nH]ncc4c3)C2)c1 [Compound 1.184, (S)-N-(1-(3-(aminomethyl)benzyl)piperidin-3-yl)-1H-indazol-5-amine]	88.6%	–	–	–
O=C(O)COc1cccc(CN2CCC[C@H](Nc3ccc4[nH]ncc4c3)C2)c1 [Compound 1.196, (S)-2-(3-((3-(1H-indazol-5-ylamino)piperidin-1-yl)methyl)phenoxy)acetic acid]	96.2%	–	–	–
CC(=O)NCc1cccc(CN2CCC[C@H](Nc3ccc4[nH]ncc4c3)C2)c1 [Compound 1.197]	41.7%	–	42%	–
CCOC(=O)COc1cccc(CN2CCC[C@H](Nc3ccc4[nH]ncc4c3)C2)c1 [Compound 1.200, (S)-ethyl 2-(3-((3-(1H-indazol-5-ylamino)piperidin-1-yl)methyl)phenoxy)acetate]	91.5%	–	92%	–
CS(=O)(=O)Nc1cc(CN2CCC[C@@H](Nc3ccc4[nH]ncc4c3)C2)ccc1Cl [Compound 1.212, (R)-N-(5-((3-(1H-indazol-5-ylamino)piperidin-1-yl)methyl)-2-chlorophenyl)methanesulfonamide]	40.1%	–	40%	–
CS(=O)(=O)Nc1cc(CN2CCC[C@H](Nc3ccc4[nH]ncc4c3)C2)ccc1Cl [Compound 1.213, (S)-N-(5-((3-(1H-indazol-5-ylamino)piperidin-1-yl)methyl)-2-chlorophenyl)methanesulfonamide]	29.3%	–	29%	–
CS(=O)(=O)Nc1cccc(CN2CCC[C@H](Nc3cccc4cnccc34)C2)c1 [Compound 2.037, (S)-N-(3-((3-(isoquinolin-5-ylamino)piperidin-1-yl)methyl)phenyl)methanesulfonamide]	–	21.3%	–	IC50 (Rattus norvegicus): 2120 nM
CCS(=O)(=O)Nc1cccc(CN2CC[C@@H](Nc3cccc4cnccc34)C2)c1 [Compound 2.041, (R)-N-(3-((3-(isoquinolin-5-ylamino)pyrrolidin-1-yl)methyl)phenyl)ethanesulfonamide]	–	−5.4%	–	IC50 (Rattus norvegicus): 162 nM
Cc1ccc(CN2CCC[C@H](Nc3cccc4cnccc34)C2)cc1 [Compound 2.045, (S)-N-(1-(4-methylbenzyl)piperidin-3-yl)isoquinolin-5-amine]	–	13.6%	–	IC50 (Rattus norvegicus): 2720 nM
Cc1cncc2cccc(S(=O)(=O)N3CCCNC[C@@H]3C)c12 [Compound H-1152, reference compound]	–	−6.5%	–	–
C[C@@H](N)c1ccc(C(=O)Nc2ccnc3[nH]ccc23)cc1 [Compound Y-39983, reference compound]	26.5%	−6.0%	–	IC50 [1]: 190 nM
O=S(=O)(c1cccc2cnccc12)N1CCCNCC1 [Fasudil, reference compound]	–	–	–	Percentage of carbachol-induced contraction at 10 μM compound, Avg % (listed as fasudil): 43.0%; IC50 Avg [1]: could not be obtained
